Values quoted from earlier work, collected in patent publication US20140194400A1, “Nasal Pharmaceutical Formulation” (Meda Pharma GmbH & Co., Kg, priority 2011, published 2014).

C[C@@H]1C[C@H]2[C@@H]3C[C@H](F)C4=CC(=O)C=C[C@]4(C)[C@@]3(F)[C@@H](O)C[C@]2(C)[C@@]1(O)C(=O)SCF [fluticasone]
oral absorption: about 1%
